{"source": "ChEMBL document CHEMBL3769377", "about": "“A synthesis, in silico, in vitro and in vivo study of thieno[2,3-b]pyridine anticancer analogues” (Medchemcomm, 2015)", "key": {"[1]": {"molecular_target": "Cyclin-dependent kinase 9 (Homo sapiens) (UniProt P50750)", "test": "Inhibition of human recombinant CDK9 assessed as residual activity at 10 uM after 1 hr by qPCR analysis relative to control"}, "[2]": {"molecular_target": "Dual specificity tyrosine-phosphorylation-regulated kinase 1B (Homo sapiens) (UniProt Q9Y463)", "sequence (Q9Y463 whole entry, looked up)": "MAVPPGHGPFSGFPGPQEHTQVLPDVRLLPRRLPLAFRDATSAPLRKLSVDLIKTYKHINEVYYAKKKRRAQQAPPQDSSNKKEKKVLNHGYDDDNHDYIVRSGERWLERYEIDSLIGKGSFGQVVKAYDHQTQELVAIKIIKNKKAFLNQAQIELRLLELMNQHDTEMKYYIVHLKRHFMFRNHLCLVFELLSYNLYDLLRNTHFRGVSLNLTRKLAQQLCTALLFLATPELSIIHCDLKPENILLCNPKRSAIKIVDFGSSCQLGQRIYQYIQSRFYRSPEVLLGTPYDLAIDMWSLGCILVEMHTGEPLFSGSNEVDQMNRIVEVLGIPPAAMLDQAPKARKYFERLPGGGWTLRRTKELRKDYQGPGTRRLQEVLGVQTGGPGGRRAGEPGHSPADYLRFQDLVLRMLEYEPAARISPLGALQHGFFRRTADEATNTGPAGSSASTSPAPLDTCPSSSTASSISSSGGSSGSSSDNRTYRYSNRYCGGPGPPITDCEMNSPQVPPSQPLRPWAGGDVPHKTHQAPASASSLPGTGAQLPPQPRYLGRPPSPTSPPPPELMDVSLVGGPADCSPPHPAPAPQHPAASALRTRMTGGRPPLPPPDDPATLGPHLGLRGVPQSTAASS", "test": "Inhibition of human recombinant DYRK1B assessed as residual activity at 10 uM after 1 hr by qPCR analysis relative to control"}, "[3]": {"molecular_target": "Epidermal growth factor receptor (Homo sapiens) (UniProt P00533)", "test": "Inhibition of human recombinant EGFR assessed as residual activity at 10 uM after 1 hr by qPCR analysis relative to control"}, "[4]": {"test_system": "Epidermal growth factor receptor (Homo sapiens), P00533 [L858R]", "test": "Inhibition of human recombinant EGFR L858R mutant assessed as residual activity at 10 uM after 1 hr by qPCR analysis relative to control", "type": "protein assay"}, "[5]": {"molecular_target": "MAP/microtubule affinity-regulating kinase 3 (Homo sapiens) (UniProt P27448)", "test": "Inhibition of human recombinant MARK3 assessed as residual activity at 10 uM after 1 hr by qPCR analysis relative to control"}, "[6]": {"molecular_target": "Receptor tyrosine-protein kinase erbB-2 (Homo sapiens) (UniProt P04626)", "test": "Inhibition of human recombinant ERBB2 assessed as residual activity at 10 uM after 1 hr by qPCR analysis relative to control"}, "[7]": {"molecular_target": "Insulin-like growth factor 1 receptor (Homo sapiens) (UniProt P08069)", "sequence (P08069 31-736 limits assumed)": "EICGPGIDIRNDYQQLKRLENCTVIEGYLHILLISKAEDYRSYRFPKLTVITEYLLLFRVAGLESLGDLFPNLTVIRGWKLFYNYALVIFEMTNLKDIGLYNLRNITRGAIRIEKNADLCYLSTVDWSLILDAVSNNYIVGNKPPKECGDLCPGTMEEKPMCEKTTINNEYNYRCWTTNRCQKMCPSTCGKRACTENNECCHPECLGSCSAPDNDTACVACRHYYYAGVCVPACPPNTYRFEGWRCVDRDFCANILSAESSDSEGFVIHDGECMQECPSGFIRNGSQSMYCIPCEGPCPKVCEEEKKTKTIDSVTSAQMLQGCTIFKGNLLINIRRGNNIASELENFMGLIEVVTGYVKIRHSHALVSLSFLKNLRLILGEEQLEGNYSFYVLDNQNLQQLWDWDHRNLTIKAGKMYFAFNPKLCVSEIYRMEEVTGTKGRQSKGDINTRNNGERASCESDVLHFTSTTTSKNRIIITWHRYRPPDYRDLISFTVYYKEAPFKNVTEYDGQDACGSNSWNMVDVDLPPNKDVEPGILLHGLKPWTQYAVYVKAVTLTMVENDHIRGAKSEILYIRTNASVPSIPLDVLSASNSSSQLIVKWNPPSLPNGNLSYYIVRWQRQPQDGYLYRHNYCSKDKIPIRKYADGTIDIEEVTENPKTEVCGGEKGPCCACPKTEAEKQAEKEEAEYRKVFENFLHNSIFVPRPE", "sequence (P08069 741-1367 limits assumed)": "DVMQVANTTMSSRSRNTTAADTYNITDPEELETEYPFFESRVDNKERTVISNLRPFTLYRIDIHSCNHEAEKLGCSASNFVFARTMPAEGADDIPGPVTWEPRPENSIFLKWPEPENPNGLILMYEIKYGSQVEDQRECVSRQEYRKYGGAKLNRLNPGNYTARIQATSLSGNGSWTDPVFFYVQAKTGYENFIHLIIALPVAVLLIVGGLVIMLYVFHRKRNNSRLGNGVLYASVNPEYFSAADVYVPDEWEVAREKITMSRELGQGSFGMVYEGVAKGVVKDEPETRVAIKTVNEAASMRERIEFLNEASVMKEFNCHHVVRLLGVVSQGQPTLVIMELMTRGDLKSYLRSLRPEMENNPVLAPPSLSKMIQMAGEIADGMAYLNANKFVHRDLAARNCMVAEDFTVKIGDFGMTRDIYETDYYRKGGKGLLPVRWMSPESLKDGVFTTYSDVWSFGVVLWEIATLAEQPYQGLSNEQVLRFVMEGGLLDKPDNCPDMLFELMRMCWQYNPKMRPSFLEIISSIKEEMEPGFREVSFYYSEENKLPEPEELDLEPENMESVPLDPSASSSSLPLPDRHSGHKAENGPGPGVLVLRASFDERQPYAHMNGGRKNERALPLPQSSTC", "test": "Inhibition of human recombinant IGF1R assessed as residual activity at 10 uM after 1 hr by qPCR analysis relative to control"}, "[8]": {"molecular_target": "Tyrosine-protein kinase JAK3 (Homo sapiens) (UniProt P52333)", "test": "Inhibition of human recombinant JAK3 (JH1 domain-catalytic) assessed as residual activity at 10 uM after 1 hr by qPCR analysis relative to control"}, "[9]": {"molecular_target": "Serine/threonine-protein kinase STK11 (Homo sapiens) (UniProt Q15831)", "test": "Inhibition of human recombinant LKB1 assessed as residual activity at 10 uM after 1 hr by qPCR analysis relative to control"}, "[10]": {"molecular_target": "MAP kinase-activated protein kinase 2 (Homo sapiens) (UniProt P49137)", "test": "Inhibition of human recombinant MAPKAPK2 assessed as residual activity at 10 uM after 1 hr by qPCR analysis relative to control"}, "[11]": {"molecular_target": "Hepatocyte growth factor receptor (Homo sapiens) (UniProt P08581)", "test": "Inhibition of human recombinant MET assessed as residual activity at 10 uM after 1 hr by qPCR analysis relative to control"}, "[12]": {"molecular_target": "MAP kinase-interacting serine/threonine-protein kinase 1 (Homo sapiens) (UniProt Q9BUB5)", "test": "Inhibition of human recombinant MKNK1 assessed as residual activity at 10 uM after 1 hr by qPCR analysis relative to control"}, "[13]": {"molecular_target": "Mitogen-activated protein kinase kinase kinase 9 (Homo sapiens) (UniProt P80192)", "test": "Inhibition of human recombinant MLK1 assessed as residual activity at 10 uM after 1 hr by qPCR analysis relative to control"}, "[14]": {"molecular_target": "Mitogen-activated protein kinase 14 (Homo sapiens) (UniProt Q16539)", "test": "Inhibition of human recombinant p38alpha assessed as residual activity at 10 uM after 1 hr by qPCR analysis relative to control"}, "[15]": {"molecular_target": "3-phosphoinositide-dependent protein kinase 1 (Homo sapiens) (UniProt O15530)", "sequence (O15530 whole entry)": "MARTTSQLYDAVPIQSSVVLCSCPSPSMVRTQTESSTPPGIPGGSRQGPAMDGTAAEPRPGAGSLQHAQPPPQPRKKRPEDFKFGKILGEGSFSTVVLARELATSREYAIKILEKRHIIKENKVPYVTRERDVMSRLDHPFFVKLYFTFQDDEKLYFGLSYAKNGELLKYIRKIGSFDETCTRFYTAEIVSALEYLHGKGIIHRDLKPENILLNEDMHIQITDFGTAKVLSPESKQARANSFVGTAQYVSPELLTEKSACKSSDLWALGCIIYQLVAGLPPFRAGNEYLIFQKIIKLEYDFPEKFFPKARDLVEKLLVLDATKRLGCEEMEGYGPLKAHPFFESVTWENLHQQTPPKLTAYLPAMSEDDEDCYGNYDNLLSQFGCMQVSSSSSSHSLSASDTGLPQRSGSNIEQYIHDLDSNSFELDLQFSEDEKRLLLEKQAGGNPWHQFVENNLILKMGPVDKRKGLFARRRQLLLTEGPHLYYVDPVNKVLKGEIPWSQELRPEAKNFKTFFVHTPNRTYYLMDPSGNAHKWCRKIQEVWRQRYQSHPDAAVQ", "test": "Inhibition of human recombinant PDPK1 assessed as residual activity at 10 uM after 1 hr by qPCR analysis relative to control"}, "[16]": {"molecular_target": "Phosphatidylinositol 4,5-bisphosphate 3-kinase catalytic subunit gamma isoform (Homo sapiens) (UniProt P48736)", "sequence (P48736 whole entry, looked up, canonical isoform)": "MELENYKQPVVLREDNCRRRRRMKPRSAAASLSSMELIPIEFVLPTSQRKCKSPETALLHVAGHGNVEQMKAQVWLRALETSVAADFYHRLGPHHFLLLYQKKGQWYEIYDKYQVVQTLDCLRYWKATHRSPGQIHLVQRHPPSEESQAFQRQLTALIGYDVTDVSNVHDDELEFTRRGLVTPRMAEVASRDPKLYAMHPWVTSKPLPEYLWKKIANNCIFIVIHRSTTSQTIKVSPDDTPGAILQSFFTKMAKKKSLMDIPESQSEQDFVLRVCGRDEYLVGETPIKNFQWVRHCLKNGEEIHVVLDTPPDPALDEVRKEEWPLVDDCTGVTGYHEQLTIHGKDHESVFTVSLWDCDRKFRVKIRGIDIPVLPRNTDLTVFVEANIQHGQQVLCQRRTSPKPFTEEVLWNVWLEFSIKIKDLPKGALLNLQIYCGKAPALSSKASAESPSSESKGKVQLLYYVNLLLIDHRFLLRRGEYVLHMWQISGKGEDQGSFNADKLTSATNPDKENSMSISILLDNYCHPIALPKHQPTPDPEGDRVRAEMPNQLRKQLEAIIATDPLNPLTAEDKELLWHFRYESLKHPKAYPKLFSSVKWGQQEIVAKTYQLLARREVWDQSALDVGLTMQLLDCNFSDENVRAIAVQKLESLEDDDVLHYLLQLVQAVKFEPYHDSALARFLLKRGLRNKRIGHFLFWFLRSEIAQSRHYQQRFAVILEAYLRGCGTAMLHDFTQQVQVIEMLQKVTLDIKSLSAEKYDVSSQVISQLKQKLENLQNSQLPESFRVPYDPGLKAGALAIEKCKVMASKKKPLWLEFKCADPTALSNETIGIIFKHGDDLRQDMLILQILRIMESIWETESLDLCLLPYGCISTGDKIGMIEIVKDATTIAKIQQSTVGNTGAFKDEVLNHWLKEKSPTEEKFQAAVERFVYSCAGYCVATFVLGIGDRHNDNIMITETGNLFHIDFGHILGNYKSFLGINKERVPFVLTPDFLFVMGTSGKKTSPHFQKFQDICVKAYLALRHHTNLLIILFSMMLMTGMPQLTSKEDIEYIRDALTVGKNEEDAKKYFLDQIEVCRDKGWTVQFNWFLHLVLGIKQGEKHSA", "test": "Inhibition of human recombinant PIK3CG assessed as residual activity at 10 uM after 1 hr by qPCR analysis relative to control"}, "[17]": {"molecular_target": "Rho-associated protein kinase 2 (Homo sapiens) (UniProt O75116)", "test": "Inhibition of human recombinant ROCK2 assessed as residual activity at 10 uM after 1 hr by qPCR analysis relative to control"}, "[18]": {"molecular_target": "Ribosomal protein S6 kinase alpha-3 (Homo sapiens) (UniProt P51812)", "test": "Inhibition of human recombinant N-terminal RSK2 kinase domain 1 assessed as residual activity at 10 uM after 1 hr by qPCR analysis relative to control"}, "[19]": {"molecular_target": "Serine/threonine-protein kinase ULK2 (Homo sapiens) (UniProt Q8IYT8)", "test": "Inhibition of human recombinant ULK2 assessed as residual activity at 10 uM after 1 hr by qPCR analysis relative to control"}, "[20]": {"molecular_target": "Vascular endothelial growth factor receptor 2 (Homo sapiens) (UniProt P35968)", "test": "Inhibition of human recombinant VEGFR2 assessed as residual activity at 10 uM after 1 hr by qPCR analysis relative to control"}, "[21]": {"molecular_target": "Serine/threonine-protein kinase 32C (Homo sapiens) (UniProt Q86UX6)", "test": "Inhibition of human recombinant YANK3 assessed as residual activity at 10 uM after 1 hr by qPCR analysis relative to control"}, "Mus musculus": {"test_system": "Mus musculus", "test": "Toxicity in athymic nude/beige mouse xenografted with human 786-O cells assessed as dark circles around eyes at 0.16 mg/kg, ip qd after 24 days", "type": "organism-based, 786-0", "conditions": "in vivo, 576 h"}, "[22]": {"test_system": "Serine/threonine-protein kinase B-raf (Homo sapiens), P15056 [V600E]", "sequence (P15056 whole entry V600E)": "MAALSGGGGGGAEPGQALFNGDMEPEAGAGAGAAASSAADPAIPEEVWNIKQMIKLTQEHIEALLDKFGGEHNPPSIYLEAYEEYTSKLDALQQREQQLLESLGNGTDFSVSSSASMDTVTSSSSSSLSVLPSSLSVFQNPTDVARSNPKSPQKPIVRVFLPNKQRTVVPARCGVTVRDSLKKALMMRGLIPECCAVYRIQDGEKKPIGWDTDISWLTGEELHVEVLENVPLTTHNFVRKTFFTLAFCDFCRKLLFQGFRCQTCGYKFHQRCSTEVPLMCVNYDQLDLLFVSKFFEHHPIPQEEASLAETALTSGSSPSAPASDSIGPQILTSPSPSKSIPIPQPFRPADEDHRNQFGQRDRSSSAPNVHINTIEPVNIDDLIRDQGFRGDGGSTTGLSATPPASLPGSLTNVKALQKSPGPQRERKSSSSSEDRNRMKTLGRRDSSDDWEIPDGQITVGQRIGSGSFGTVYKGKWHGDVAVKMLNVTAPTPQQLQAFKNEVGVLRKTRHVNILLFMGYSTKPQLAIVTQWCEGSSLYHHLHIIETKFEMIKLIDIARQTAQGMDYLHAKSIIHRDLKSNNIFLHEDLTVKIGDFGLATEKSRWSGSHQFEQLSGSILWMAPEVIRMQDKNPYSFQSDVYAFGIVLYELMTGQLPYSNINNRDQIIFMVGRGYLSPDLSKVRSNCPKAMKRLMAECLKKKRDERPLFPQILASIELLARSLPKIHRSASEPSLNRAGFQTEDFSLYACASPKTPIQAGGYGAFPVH", "test": "Inhibition of human recombinant BRAF V600E mutant assessed as residual activity at 10 uM after 1 hr by qPCR analysis relative to control"}, "[23]": {"molecular_target": "Cyclin-dependent kinase 11B (Homo sapiens) (UniProt P21127)", "test": "Inhibition of human recombinant CDK11 assessed as residual activity at 10 uM after 1 hr by qPCR analysis relative to control"}, "[24]": {"molecular_target": "Tyrosyl-DNA phosphodiesterase 1 (Homo sapiens, UniProt Q9NUW8)", "test": "Inhibition of recombinant human N-terminal His-tagged TDP1 (1824 bp) expressed in Escherichia coli BL21(DE3) cells using 5'-(5,6 FAM-AAC GTC AGG GTC TTC C-BHQ1)-3' as substrate measured every 1 min by RT-PCR method"}, "[25]": {"molecular_target": "Tyrosine-protein kinase ABL1 (Homo sapiens) (UniProt P00519)", "test": "Inhibition of human recombinant phosphorylated ABL1 assessed as residual activity at 10 uM after 1 hr by qPCR analysis relative to control"}, "[26]": {"molecular_target": "ALK tyrosine kinase receptor (Homo sapiens) (UniProt Q9UM73)", "test": "Inhibition of human recombinant ALK assessed as residual activity at 10 uM after 1 hr by qPCR analysis relative to control"}, "[27]": {"molecular_target": "Aurora kinase B (Homo sapiens) (UniProt Q96GD4)", "sequence (Q96GD4 whole entry)": "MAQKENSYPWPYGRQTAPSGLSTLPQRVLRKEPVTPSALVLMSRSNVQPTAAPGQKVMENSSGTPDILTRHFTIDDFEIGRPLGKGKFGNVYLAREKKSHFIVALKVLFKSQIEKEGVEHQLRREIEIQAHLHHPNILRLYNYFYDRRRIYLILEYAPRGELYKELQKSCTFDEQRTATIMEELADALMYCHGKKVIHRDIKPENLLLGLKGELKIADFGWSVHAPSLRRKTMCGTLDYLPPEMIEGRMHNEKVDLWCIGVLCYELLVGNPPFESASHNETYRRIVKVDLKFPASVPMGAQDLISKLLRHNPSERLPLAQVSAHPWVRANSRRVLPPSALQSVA", "test": "Inhibition of human recombinant AURKB assessed as residual activity at 10 uM after 1 hr by qPCR analysis relative to control"}, "[28]": {"molecular_target": "Serine/threonine-protein kinase B-raf (Homo sapiens) (UniProt P15056)", "sequence (P15056 whole entry)": "as the sequence (P15056 whole entry V600E) above, with E600V counted along it", "test": "Inhibition of human recombinant BRAF assessed as residual activity at 10 uM after 1 hr by qPCR analysis relative to control"}, "[29]": {"molecular_target": "Cyclin-dependent kinase 3 (Homo sapiens) (UniProt Q00526)", "test": "Inhibition of human recombinant CDK3 assessed as residual activity at 10 uM after 1 hr by qPCR analysis relative to control"}}}
{"smiles": "Cc1c(Cl)cccc1NC(=O)c1sc2nc3c(cc2c1N)C(=O)CC3", "values": [{"measurement": "Activity", "setting": "[1]", "result": 100, "unit": "%"}, {"measurement": "Activity", "setting": "[2]", "result": 57, "unit": "%"}, {"measurement": "Activity", "setting": "[3]", "result": 100, "unit": "%"}, {"measurement": "Activity", "setting": "[4]", "result": 92, "unit": "%"}, {"measurement": "Activity", "setting": "[5]", "result": 96, "unit": "%"}, {"measurement": "Activity", "setting": "[6]", "result": 100, "unit": "%"}, {"measurement": "Activity", "setting": "[7]", "result": 97, "unit": "%"}, {"measurement": "Activity", "setting": "[8]", "result": 100, "unit": "%"}, {"measurement": "Activity", "setting": "[9]", "result": 76, "unit": "%"}, {"measurement": "Activity", "setting": "[10]", "result": 100, "unit": "%"}, {"measurement": "Activity", "setting": "[11]", "result": 100, "unit": "%"}, {"measurement": "Activity", "setting": "[12]", "result": 100, "unit": "%"}, {"measurement": "Activity", "setting": "[13]", "result": 99, "unit": "%"}, {"measurement": "Activity", "setting": "[14]", "result": 100, "unit": "%"}, {"measurement": "Activity", "setting": "[15]", "result": 100, "unit": "%"}, {"measurement": "Activity", "setting": "[16]", "result": 100, "unit": "%"}, {"measurement": "Activity", "setting": "[17]", "result": 100, "unit": "%"}, {"measurement": "Activity", "setting": "[18]", "result": 94, "unit": "%"}, {"measurement": "Activity", "setting": "[19]", "result": 97, "unit": "%"}, {"measurement": "Activity", "setting": "[20]", "result": 100, "unit": "%"}, {"measurement": "Activity", "setting": "[21]", "result": 62, "unit": "%"}, {"measurement": "Activity", "setting": "Mus musculus", "result": "Toxic"}, {"measurement": "Activity", "setting": "[22]", "result": 90, "unit": "%"}, {"measurement": "Activity", "setting": "[23]", "result": 100, "unit": "%"}, {"measurement": "IC50", "setting": "[24]", "result": 2.2, "unit": "µM"}, {"measurement": "Activity", "setting": "[25]", "result": 100, "unit": "%"}, {"measurement": "Activity", "setting": "[26]", "result": 100, "unit": "%"}, {"measurement": "Activity", "setting": "[27]", "result": 92, "unit": "%"}, {"measurement": "Activity", "setting": "[28]", "result": 96, "unit": "%"}, {"measurement": "Activity", "setting": "[29]", "result": 100, "unit": "%"}]}
